One experiment deals with Nucleic Acid. Briefly: Concentration at which the fluorescence of an ethidium-DNA complex was reduced by 50%. The format is nucleic-acid assay.
Experiment [1] has as its system HCT-8. Briefly: Inhibitory effect against HCT8 Human colon adenocarcinoma. The conditions noted are these: read-out: ID50 (the source's name). Type of experiment: functional.
In experiment [2] the test system is L1210. Briefly: Inhibitory effect against L1210 leukemia in tissue culture. Type of experiment: functional. The conditions noted are these: Mus musculus, read-out: ID50 (the source's name).
For experiment [3], the system named is L1210. As to the kind of experiment: Inhibitory effect against L1210 leukemia in tissue culture; Inactive. The conditions noted are these: Mus musculus. The format is functional, cell-based.
The test system of experiment [4] is HCT-8. Briefly: Inhibitory effect against HCT8 Human colon adenocarcinoma; inactive. The format is functional, cell-based.

Activity calls are given as the source filed them. The calls are words filed in the database; no cut-off is given here.

The compound `Cc1c2cnccc2c(C)c2c1c1ccccc1n2CCN1CCOCC1` returned a C50 in the experiment on Nucleic Acid of 440 nM. Further, the IC50 is 100 nM in the experiment on HCT-8 [1] and 320 nM in the experiment with L1210 [2].

`Cc1c2cnccc2c(C)c2c1c1ccccc1n2CCN1CCCCC1` yielded a C50 in the experiment on Nucleic Acid of 122 nM. Also, the IC50 came out at 82 nM with HCT-8 [1] and 170 nM with L1210 [2].

On to `Cc1c2cnccc2c(C)c2c1c1ccccc1n2C`, for which the C50 in the experiment with Nucleic Acid is 454 nM. Besides, the IC50 in the experiment with L1210 [2] came out at 430 nM.

On to `Cc1c2ccncc2c(C)c2c1[nH]c1ccccc12` [ELLIPTECINE], for which, in the experiment on Nucleic Acid, the C50 worked out at 1040 nM. The IC50 came out at 260 nM with HCT-8 [1] and 100 nM in the experiment on L1210 [2].

`CCN(CC)C(=O)Cn1c2ccccc2c2c(C)c3cnccc3c(C)c21`: the ID50 entry in the experiment on L1210 [3] is “inactive”.

`CCN(CC)CC[n+]1ccc2c(C)c3[nH]c4ccccc4c3c(C)c2c1`: the C50 with Nucleic Acid is 159 nM. For the same compound, the IC50 in the experiment on HCT-8 [1] was 500 nM; in the experiment with L1210 [2] it was 41 nM.

Turning to `CCN(CC)CCn1c2ccccc2c2c(C)c3cnccc3c(C)c21`, the C50 in the experiment with Nucleic Acid worked out at 106 nM. For the same compound, the IC50 came to 80 nM with HCT-8 [1] and 190 nM with L1210 [2].

On to `Cc1c2cc[n+](C)cc2c(C)c2c1[nH]c1ccccc12`, for which, in the experiment on HCT-8 [4], the ID50 result is “inactive”. Moreover, the IC50 with L1210 [2] came out at 600 nM.

Consider `Cc1c2cnccc2c(C)c2c1c1ccccc1n2CCCN(C)C`, for which the IC50 with HCT-8 [1] amounted to 390 nM; with L1210 [2], 110 nM.

The values are drawn from ChEMBL document CHEMBL1123324, “Basically substituted ellipticine analogues as potential antitumor agents” (1986).
